According to patent publication US20200231638A1, “STABILIZED ANTI-MICROBIAL PEPTIDES” (priority 2015, published 2020):
Bridge positions count the residues as written; N and C are the ends. Square brackets hold non-standard residues; d marks the D form. Peptide text beside a SMILES is read from it. S5 = C=CCCC[C@](C)(N)C(=O)O; Nle = CCCC[C@H](N)C(=O)O

Tests used:
E. coli = assay type: cell-based, Escherichia coli
Summary of the method: (§1)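 MIC read as the minimum peptide concentration showing no visible growth after 20-24 hours at 37° C. Cultures were grown overnight, then regrown several hours before testing. Medium was MHB refined by anion exchange to strip polyanions; final inoculum 5×10^5 CFU/ml.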

B. cereus = assay type: cell-based, Bacillus cereus
Summary of the method: as §1

S. aureus = assay type: cell-based, Staphylococcus aureus
Summary of the method: as §1

P. aeruginosa = assay type: cell-based, Pseudomonas aeruginosa
Summary of the method: as §1

human red blood cells = assay type: cell-based; conditions: for % Hemolysis at 25 μg/ml: red cells of human, 1 h
Summary of the method: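 Washed human RBCs as 1% (v/v) suspension in phosphate-buffered saline incubated 1 h at 37° C with serially diluted peptides. Hemoglobin release in supernatant measured spectrophotometrically (570 nm), % hemolysis relative to untreated and 1% Triton-X100 controls; MHC defined as concentration giving less than 1% release.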

Structure (SMILES) | MIC E. coli (E. coli) | MIC B. cereus (B. cereus) | MIC S. aureus (S. aureus) | MIC P. aeruginosa (P. aeruginosa) | % Hemolysis at 25 μg/ml (human red blood cells) | hemolytic activity (in words) (human red blood cells)
CCCC[C@H](NC(=O)[C@]1(C)CCCC=CCCC[C@](C)(NC(=O)[C@H](C)NC(=O)[C@H](CCCCN)NC(=O)CNC(=O)[C@H](Cc2ccccc2)NC(=O)[C@H](CCCCN)NC(=O)[C@H](CCCCN)NC(=O)[C@H](C)NC(=O)[C@H](CO)NC(=O)[C@H](Cc2c[nH]cn2)NC(=O)[C@H](CC(C)C)NC(=O)[C@H](Cc2ccccc2)NC(=O)[C@H](CCCCN)NC(=O)CNC(=O)[C@@H](NC(=O)CN)[C@@H](C)CC)C(=O)N[C@@H](C(C)C)C(=O)NCC(=O)N[C@@H](CCC(=O)O)C(=O)N1)C(=O)N[C@@H](CCCCN)C(=O)N[C@@H](CO)C(N)=O [Mag(i + 4)15(N22K), GIGKFLHSAKKFGKAXVGEXBKS] (H-GIGKFLHSAKKFGKA[S5]VGE[S5][Nle]KS-NH2; staple 16-20) | 1.6 µg/mL | 3.1 µg/mL | 12.5 µg/mL | 3.1 µg/mL | 12.0% | –
CCCC[C@H](NC(=O)[C@@H](NC(=O)[C@]1(C)CCCC=CCCC[C@](C)(NC(=O)[C@H](CCCCN)NC(=O)CNC(=O)[C@H](Cc2ccccc2)NC(=O)[C@H](CCCCN)NC(=O)[C@H](CCCCN)NC(=O)[C@H](C)NC(=O)[C@H](CO)NC(=O)[C@H](Cc2c[nH]cn2)NC(=O)[C@H](CC(C)C)NC(=O)[C@H](Cc2ccccc2)NC(=O)[C@H](CCCCN)NC(=O)CNC(=O)[C@@H](NC(=O)CN)[C@@H](C)CC)C(=O)N[C@@H](Cc2ccccc2)C(=O)N[C@@H](C(C)C)C(=O)NCC(=O)N1)[C@@H](C)CC)C(=O)N[C@@H](CC(N)=O)C(=O)N[C@@H](CO)C(N)=O [Mag(i + 4)14] (H-GIGKFLHSAKKFGK[S5]FVG[S5]I[Nle]NS-NH2; staple 15-19) | 1.6 µg/mL | 3.1 µg/mL | 3.1 µg/mL | 3.1 µg/mL | 92.1% | –
CCCC[C@H](NC(=O)[C@]1(C)CCCC=CCCC[C@](C)(NC(=O)[C@H](C)NC(=O)[C@H](CCCCN)NC(=O)[C@H](C)NC(=O)[C@H](Cc2ccccc2)NC(=O)[C@H](CCCCN)NC(=O)[C@H](CCCCN)NC(=O)[C@H](C)NC(=O)[C@H](CO)NC(=O)[C@H](Cc2c[nH]cn2)NC(=O)[C@H](CC(C)C)NC(=O)[C@H](Cc2ccccc2)NC(=O)[C@H](CCCCN)NC(=O)CNC(=O)[C@@H](NC(=O)CN)[C@@H](C)CC)C(=O)N[C@@H](C(C)C)C(=O)NCC(=O)N[C@@H](CCC(=O)O)C(=O)N1)C(=O)N[C@@H](CC(N)=O)C(=O)N[C@@H](CO)C(N)=O [Mag(i + 4)15(G13A), GIGKFLHSAKKFAKAXVGEXBNS] (H-GIGKFLHSAKKFAKA[S5]VGE[S5][Nle]NS-NH2; staple 16-20) | 1.6 µg/mL | 3.1 µg/mL | 3.1 µg/mL | 6.2 µg/mL | 20.5% | –
CCCC[C@H](NC(=O)[C@]1(C)CCCC=CCCC[C@](C)(NC(=O)[C@H](C)NC(=O)[C@H](CCCCN)NC(=O)CNC(=O)[C@H](Cc2ccccc2)NC(=O)[C@H](CCCCN)NC(=O)[C@H](CCCCN)NC(=O)[C@H](C)NC(=O)[C@H](CO)NC(=O)[C@H](Cc2c[nH]cn2)NC(=O)[C@H](CC(C)C)NC(=O)[C@H](Cc2ccccc2)NC(=O)[C@H](CCCCN)NC(=O)CNC(=O)[C@@H](NC(=O)CN)[C@@H](C)CC)C(=O)N[C@@H](C(C)C)C(=O)NCC(=O)N[C@@H](CCC(=O)O)C(=O)N1)C(=O)N[C@@H](CC(N)=O)C(=O)N[C@@H](CCCCN)C(N)=O [Mag(i + 4)15(S23K), GIGKFLHSAKKFGKAXVGEXBNK] (H-GIGKFLHSAKKFGKA[S5]VGE[S5][Nle]NK-NH2; staple 16-20) | 1.6 µg/mL | 6.2 µg/mL | 50 µg/mL | 3.1 µg/mL | 5.0% | –
CCCC[C@H](NC(=O)[C@]1(C)CCCC=CCCC[C@](C)(NC(=O)[C@H](C)NC(=O)[C@H](CCCCN)NC(=O)CNC(=O)[C@H](Cc2ccccc2)NC(=O)[C@H](CCCCN)NC(=O)[C@H](CCCCN)NC(=O)[C@H](C)NC(=O)[C@H](CO)NC(=O)[C@H](Cc2c[nH]cn2)NC(=O)[C@H](CC(C)C)NC(=O)[C@H](Cc2ccccc2)NC(=O)[C@H](CCCCN)NC(=O)CNC(=O)[C@@H](NC(=O)CN)[C@@H](C)CC)C(=O)N[C@@H](C(C)C)C(=O)N[C@@H](CCCCN)C(=O)N[C@@H](CCC(=O)O)C(=O)N1)C(=O)N[C@@H](CC(N)=O)C(=O)N[C@@H](CO)C(N)=O [Mag(i + 4)15(G18K), GIGKFLHSAKKFGKAXVKEXBNS] (H-GIGKFLHSAKKFGKA[S5]VKE[S5][Nle]NS-NH2; staple 16-20) | 1.6 µg/mL | 3.1 µg/mL | 12.5 µg/mL | 3.1 µg/mL | 10.1% | –
CCCC[C@H](NC(=O)[C@]1(C)CCCC=CCCC[C@](C)(NC(=O)[C@H](C)NC(=O)[C@H](CCCCN)NC(=O)CNC(=O)[C@H](Cc2ccccc2)NC(=O)[C@H](CCCCN)NC(=O)[C@H](CCCCN)NC(=O)[C@H](C)NC(=O)[C@H](CCCCN)NC(=O)[C@H](Cc2c[nH]cn2)NC(=O)[C@H](CC(C)C)NC(=O)[C@H](Cc2ccccc2)NC(=O)[C@H](CCCCN)NC(=O)CNC(=O)[C@@H](NC(=O)CN)[C@@H](C)CC)C(=O)N[C@@H](C(C)C)C(=O)NCC(=O)N[C@@H](CCC(=O)O)C(=O)N1)C(=O)N[C@@H](CC(N)=O)C(=O)N[C@@H](CO)C(N)=O [Mag(i + 4)15(S8K), GIGKFLHKAKKFGKAXVGEXBNS] (H-GIGKFLHKAKKFGKA[S5]VGE[S5][Nle]NS-NH2; staple 16-20) | 1.6 µg/mL | 3.1 µg/mL | 6.2 µg/mL | 6.2 µg/mL | 3.4% | –

Further lines, with some results ahead:

MIC E. coli (E. coli) | MIC B. cereus (B. cereus) | MIC S. aureus (S. aureus) | MIC P. aeruginosa (P. aeruginosa) | Structure (SMILES) | % Hemolysis at 25 μg/ml (human red blood cells) | hemolytic activity (in words) (human red blood cells)
3.1 µg/mL | 3.1 µg/mL | 12.5 µg/mL | 3.1 µg/mL | CCCC[C@H](NC(=O)[C@@H](NC(=O)[C@H](CCC(=O)O)NC(=O)CNC(=O)[C@@H](NC(=O)[C@H](Cc1ccccc1)NC(=O)[C@H](C)NC(=O)[C@H](CCCCN)NC(=O)[C@]1(C)CCCC=CCCC[C@](C)(NC(=O)[C@H](CO)NC(=O)[C@H](Cc2c[nH]cn2)NC(=O)[C@H](CC(C)C)NC(=O)[C@H](Cc2ccccc2)NC(=O)[C@H](CCCCN)NC(=O)CNC(=O)[C@@H](NC(=O)CN)[C@@H](C)CC)C(=O)N[C@@H](CCCCN)C(=O)N[C@@H](CCCCN)C(=O)N[C@@H](Cc2ccccc2)C(=O)N1)C(C)C)[C@@H](C)CC)C(=O)N[C@@H](CC(N)=O)C(=O)N[C@@H](CO)C(N)=O [Mag(i + 4)8, GIGKFLHSXKKFXKAFVGEIBNS] (H-GIGKFLHS[S5]KKF[S5]KAFVGEI[Nle]NS-NH2; staple 9-13) | 74.6% | indiscriminate lytic activity
1.6 µg/mL | 12.5 µg/mL | 23 µg/mL | 3.1 µg/mL | CCCC[C@H](NC(=O)[C@]1(C)CCCC=CCCC[C@](C)(NC(=O)[C@H](C)NC(=O)[C@H](CCCCN)NC(=O)CNC(=O)[C@H](Cc2ccccc2)NC(=O)[C@H](CCCCN)NC(=O)[C@H](CCCCN)NC(=O)[C@H](C)NC(=O)[C@H](CO)NC(=O)[C@H](Cc2c[nH]cn2)NC(=O)[C@H](CC(C)C)NC(=O)[C@H](Cc2ccccc2)NC(=O)[C@H](CCCCN)NC(=O)CNC(=O)[C@H](CCCCN)NC(=O)CN)C(=O)N[C@@H](C(C)C)C(=O)NCC(=O)N[C@@H](CCC(=O)O)C(=O)N1)C(=O)N[C@@H](CC(N)=O)C(=O)N[C@@H](CO)C(N)=O [Mag(i + 4)15(I2K), GKGKFLHSAKKFGKAXVGEXBNS] (H-GKGKFLHSAKKFGKA[S5]VGE[S5][Nle]NS-NH2; staple 16-20) | 2.3% | –
6.2 µg/mL | 12.5 µg/mL | >50 µg/mL | >50 µg/mL | CCCC[C@H](NC(=O)[C@@H](NC(=O)[C@H](CCC(=O)O)NC(=O)CNC(=O)[C@@H](NC(=O)[C@H](Cc1ccccc1)NC(=O)[C@H](C)NC(=O)[C@]1(C)CCCC=CCCC[C@](C)(NC(=O)[C@H](C)NC(=O)[C@H](CO)NC(=O)[C@H](Cc2c[nH]cn2)NC(=O)[C@H](CC(C)C)NC(=O)[C@H](Cc2ccccc2)NC(=O)[C@H](CCCCN)NC(=O)CNC(=O)[C@@H](NC(=O)CN)[C@@H](C)CC)C(=O)N[C@@H](CCCCN)C(=O)N[C@@H](Cc2ccccc2)C(=O)NCC(=O)N1)C(C)C)[C@@H](C)CC)C(=O)N[C@@H](CC(N)=O)C(=O)N[C@@H](CO)C(N)=O [Mag(i + 4)9] (H-GIGKFLHSA[S5]KFG[S5]AFVGEI[Nle]NS-NH2; staple 10-14) | 66.9% | –
1.6 µg/mL | 25 µg/mL | >50 µg/mL | 6.2 µg/mL | CC[C@H](C)[C@H](NC(=O)CN)C(=O)NCC(=O)N[C@@H](CCCCN)C(=O)N[C@@H](Cc1ccccc1)C(=O)N[C@@H](CC(C)C)C(=O)N[C@@H](Cc1c[nH]cn1)C(=O)N[C@@H](CO)C(=O)N[C@@H](C)C(=O)N[C@@H](CCCCN)C(=O)N[C@@H](CCCCN)C(=O)N[C@@H](Cc1ccccc1)C(=O)NCC(=O)N[C@@H](CCCCN)C(=O)N[C@@H](C)C(=O)N[C@@]1(C)CCCC=CCCC[C@@](C)(C(=O)N[C@@H](CCCCN)C(=O)N[C@@H](CC(N)=O)C(=O)N[C@@H](CO)C(N)=O)NC(=O)[C@H](CCC(=O)O)NC(=O)CNC(=O)[C@H](C(C)C)NC1=O [Mag(i + 4)15(B21K), GIGKFLHSAKKFGKAXVGEXKNS] (H-GIGKFLHSAKKFGKA[S5]VGE[S5]KNS-NH2; staple 16-20) | 3.7% | –
